Assay results reported in patent publication US20240150843A1, “METHODS AND MATERIALS FOR IDENTIFYING MYELOMA STAGE AND DRUG SENSITIVITY AND TREATING MYELOMA” (Mayo Foundation for Medical Education and Research, priority 2021, published 2024).

Key:
JJN3 cells = assay: MTT assay, PBK inhibitor alone or combined with lenalidomide or bortezomib; type: cell-based, human; settings: JJN3 (IMiD resistant cell line)
Method: (§1) FIGS. 11A and 11B show MM cell growth and drug response after depletion of PRR11 using CRISPR-Cas9 technology or inhibition of PBK in HMCLs. (A) The lentivirus harboring non-targeting control (NS) and two PRR11 CRISPR gRNAs (#1 and #2) expressing cassette were used to infect two MM cell lines (JJN3 and […]). After confirming depletion of PRR11 in HMCLs by western blot (bottom), an MTT assay was performed to evaluate cell proliferation and drug response to lenalidomide or bortezomib in both control virus-transduced cells and cells with PRR11 depletion. Depletion of PRR11 neither changed MM cell proliferation nor affected lenalidomide and bortezomib sensitivity. (B) JJN3 and XG1LenRes, IMiD resistant cell lines, were treated with a PBK specific inhibitor, HI-TOPK-032 alone (Calbiochem) or combined with either lenalidomide (Len) or bortezomib (Bor) to evaluate synergy by the MTT assay. Inhibition of PBK activity using Hi-TOPK-032, enhanced both lenalidomide and bortezomib sensitivity in JJN3 and XG1LenRes cells.
(§2) Analysis of NM cell proliferation and drug response after modulating PRR11 expression and PBK1 activity: PRR11 and PBK1 expression also was associated with survival and drug response in the CoMMpass dataset. Using CRISPR-Cas9 technology, MM cell proliferation and drug response were investigated after depletion of PRR11. Briefly, the lentivirus harboring non-targeting control and two PRR11 CRISPR gRNA expressing cassettes were prepared and used to infect MM cell lines using methods described elsewhere (Ran et al., Nat Protoc 8(11):2281-2308, 2013; and Zhu et al., Cancer Res 77(16):4317-4327, 2017). After confirming depletion of PRR11 in HMCLs by western blot, an MTT assay was performed to evaluate cell proliferation and drug response to lenalidomide or bortezomib in both control virus-transduced cells and cells with PRR11 depletion. For PBK, JJN3 and XG1LenRes (IMiD resistant cell lines) were treated with a PBK specific inhibitor (HI-TOPK-032; Calbiochem; San Diego, CA) either alone or in combination with either lenalidomide or bortezomib to evaluate their effects by MTT assay.

XG1LenRes cells = assay: as above; type: cell-based, human; settings: XG1LenRes (IMiD resistant cell line)
Method: as §1, §2

N#Cc1c2nc3ccccc3nc2n2ccc(NC(=O)c3cccs3)cc12 [Hi-TOPK-032]
enhanced: bortezomib sensitivity (JJN3 cells; combined with bortezomib) | lenalidomide sensitivity (JJN3 cells; combined with lenalidomide) | bortezomib sensitivity (XG1LenRes cells; combined with bortezomib) | lenalidomide sensitivity (XG1LenRes cells; combined with lenalidomide)
